Tested on: 699152-130-R-J1-PDC complex spheroid viability
Assay: Anticancer human tumor 699152-130-R-J1-PDC patient-derived pancreatic carcinoma cell line growth inhibition [POLQ]
Settings: for IC50: curve of first compound; for viability, T/C: stronger effect = lower value; active = viability on the fitted dose curve at most 10% of control; inactive = the rest
Protocol: Multicellular complex tumor spheroid response to Polymerase (POL) inhibitors (novobiocin, ART-558, RP6685) in combination with a variety of drugs and investigational agents in selected tumor cell lines
The POL inhibitors (novobiocin, ART-558, and RP6685) were evaluated both individually and in combination with standard of care and investigational anticancer small molecules within a complex spheroid model of solid tumors. . Complex spheroids include a stromal component modeled by human endothelial cells (HUVEC) and fibroblasts modeled by human mesenchymal stem cells (MSCs). The concentration ranges selected for each drug and investigational agent were based upon clinically achievable concentrations if the clinical Cmax of the agent was known.
Compounds. The drugs and investigational agents: novobiocin (NSC847541), ART-558 (NSC835418), RP-6685 (NSC848927), peposertib (NSC802822), ceralasertib (NSC780249), elimusertib (NSC800525), camonsertib (NSC841442), AZD-1390 (NSC803789), olaparib (NSC753686), talazoparib (NSC767125), rucaparib (NSC756644), sotorasib (NSC818433), MRTX-1133 (NSC836407), SN-38 (NSC673596), topotecan (NSC609699), epotoside (NSC141540), doxorubicin (NSC123127), gemcitabine (NSC613327), 5-fluorouracil (NSC19893), paclitaxel (NSC125973), vemurafenib (NSC761431), MSA-2 (NSC828583), SN-011 (NSC837082), adavosertib (NSC754352), prexasertib (NSC758257), carboplatin (NSC241240) and oxaliplatin (NSC266046), were obtained from the National Cancer Institute (NCI) Developmental Therapeutics Program Chemical Repository (21). The FDA-approved anticancer drug set is available from the Developmental Therapeutics Program at https://dtp.cancer.gov/organization/dscb/obtaining/. […] The stock solutions were prepared in dimethyl sulfoxide (DMSO, Sigma-Aldrich, St. Louis, MO, cat. D2650), except for the platinum compounds which were prepared in saline (Quality Biological, Gaithersburg, MD, cat. 114-055-101), at 800-fold the tested concentration and stored at -70 degrees C prior to their use. All drugs and investigational agents were tested over a range starting from a high concentration at or near the clinical Cmax and decreasing in half-log increments. If the clinical Cmax for an agent had not been determined, the highest concentration tested was 10 microM, except for SN-38, which was tested at a high concentration of 1 microM.
Cell Culture. All cells were maintained in an incubator at 37 degrees C and 5% CO2 with 95% humidity. The PDC lines were cultured according to standard operating procedures established by the NCI PDMR (https://pdmr.cancer.gov). Table 3 of the manuscript, lists the cell lines along with the number of the three cell types plated to form the mct-spheroids and media for tumor cell growth. After thawing, all PDC lines, except 997537-175-T-J1-PDC and 415267-285-R-J2-PDC, were cultured in Matrigel-coated flasks prepared with a working solution of 1X Ham's F-12 nutrient mix, without supplementation (Thermo Fisher Scientific, cat. 11765054), 100 U/mL penicillin-streptomycin (Thermo Fisher Scientific, cat. 15140122), and 2.5% Matrigel (Corning Inc., Corning, NY, cat. 354248) for the first three passages. The two PDC lines 997537-175-T-J1-PDC and 415267-285-R-J2-PDC were cultured on uncoated flasks. The 857933-349-R-J2-PDC line was cultured in 6C/Colon 1B media containing advanced DMEM/F-12 (Thermo Fisher Scientific, cat. 12634028), 10 mM HEPES (Thermo Fisher Scientific, cat. 15630080), 1X GlutaMAX supplement (Thermo Fisher Scientific, cat. 35050061), 0.1 mg/mL primocin (InvivoGen, San Diego, CA, cat. ant-pm-2), 10% defined fetal bovine serum, heat inactivated (HyClone Laboratories Inc., Logan, UT, cat. SH30070.03HI), 50% L-WRN conditioned media (ATCC, cat. CRL-3276), 1.25 mM N-Acetyl-L-cysteine (Sigma-Aldrich, cat. A9165), 10 mM nicotinamide (Sigma-Aldrich, cat. N0636), 1X B-27 supplement (Thermo Fisher Scientific, cat. 17504044), 1X N-2 supplement (Thermo Fisher Scientific, cat. […]

[1] = second compound 0.0316 µM, first compound 0.00316 µM
[2] = second compound 0.0316 µM, first compound 0.01 µM
[3] = second compound 0.0316 µM, first compound 0.0316 µM
[4] = second compound 0.0316 µM, first compound 0.1 µM
[5] = second compound 0.1 µM, first compound 0.00316 µM
[6] = second compound 0.1 µM, first compound 0.01 µM
[7] = second compound 0.1 µM, first compound 0.0316 µM
[8] = second compound 0.1 µM, first compound 0.1 µM
[9] = second compound 0.316 µM, first compound 0.00316 µM
[10] = second compound 0.316 µM, first compound 0.01 µM
[11] = second compound 0.316 µM, first compound 0.0316 µM
[12] = second compound 0.316 µM, first compound 0.1 µM
[13] = second compound 1 µM, first compound 0.00316 µM
[14] = second compound 1 µM, first compound 0.01 µM
[15] = second compound 1 µM, first compound 0.0316 µM
[16] = second compound 1 µM, first compound 0.1 µM
[17] = second compound 3.16 µM, first compound 0.00316 µM
[18] = second compound 3.16 µM, first compound 0.01 µM
[19] = second compound 3.16 µM, first compound 0.0316 µM
[20] = second compound 3.16 µM, first compound 0.1 µM
[21] = second compound 10 µM, first compound 0.00316 µM
[22] = second compound 10 µM, first compound 0.01 µM
[23] = second compound 10 µM, first compound 0.0316 µM
[24] = second compound 10 µM, first compound 0.1 µM
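Also: spheroids exposed to agents for 7 days before viability reading.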
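For viability, T/C in this document: percent of DMSO vehicle control viability so 100% = vehicle and 0% = no viable signal.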

C=CCn1c(=O)c2cnc(Nc3ccc(N4CCN(C)CC4)cc3)nc2n1-c1cccc(C(C)(C)O)n1 + COC1C(OC(N)=O)C(O)C(Oc2ccc3c(O)c(NC(=O)c4ccc(O)c(CC=C(C)C)c4)c(=O)oc3c2C)OC1(C)C
> 1000 nM: IC50 (second compound 0.0316 µM) | IC50 (second compound 0.1 µM) | IC50 (second compound 0.316 µM) | IC50 (second compound 1 µM) | IC50 (second compound 3.16 µM) | IC50 (second compound 10 µM)
inactive: viability, T/C [1] 90.2% | viability, T/C [2] 98.2% | viability, T/C [3] 99.4% | viability, T/C [4] 90.2% | viability, T/C (second compound 0.0316 µM, first compound 0.316 µM) 94.6% | viability, T/C (second compound 0.0316 µM, first compound 1 µM) 77.4% | viability, T/C [5] 102% | viability, T/C [6] 102% | viability, T/C [7] 109% | viability, T/C [8] 95% | viability, T/C (second compound 0.1 µM, first compound 0.316 µM) 98.7% | viability, T/C (second compound 0.1 µM, first compound 1 µM) 75% | viability, T/C [9] 97.7% | viability, T/C [10] 95.1% | viability, T/C [11] 94.8% | viability, T/C [12] 104% | viability, T/C (second compound 0.316 µM, first compound 0.316 µM) 104% | viability, T/C (second compound 0.316 µM, first compound 1 µM) 70.7% | viability, T/C [13] 108% | viability, T/C [14] 93.9% | viability, T/C [15] 92.1% | viability, T/C [16] 99.5% | viability, T/C (second compound 1 µM, first compound 0.316 µM) 90% | viability, T/C (second compound 1 µM, first compound 1 µM) 74% | viability, T/C [17] 107% | viability, T/C [18] 92.9% | viability, T/C [19] 105% | viability, T/C [20] 96.6% | viability, T/C (second compound 3.16 µM, first compound 0.316 µM) 96.4% | viability, T/C (second compound 3.16 µM, first compound 1 µM) 76.5% | viability, T/C [21] 99.1% | viability, T/C [22] 101% | viability, T/C [23] 96.3% | viability, T/C [24] 98.7% | viability, T/C (second compound 10 µM, first compound 0.316 µM) 95% | viability, T/C (second compound 10 µM, first compound 1 µM) 68%

CC[C@@]1(O)C(=O)OCc2c1cc1n(c2=O)Cc2cc3c(CN(C)C)c(O)ccc3nc2-1 + COC1C(OC(N)=O)C(O)C(Oc2ccc3c(O)c(NC(=O)c4ccc(O)c(CC=C(C)C)c4)c(=O)oc3c2C)OC1(C)C
inactive: viability, T/C (second compound 0.0316 µM, first compound 0.000316 µM) 116% | viability, T/C (second compound 0.0316 µM, first compound 0.001 µM) 101% | viability, T/C [1] 99.3% | viability, T/C [2] 93.1% | viability, T/C [3] 79.6% | viability, T/C [4] 48.4% | viability, T/C (second compound 0.1 µM, first compound 0.000316 µM) 111% | viability, T/C (second compound 0.1 µM, first compound 0.001 µM) 99.6% | viability, T/C [5] 90.4% | viability, T/C [6] 93.2% | viability, T/C [7] 69% | viability, T/C [8] 60.2% | viability, T/C (second compound 0.316 µM, first compound 0.000316 µM) 112% | viability, T/C (second compound 0.316 µM, first compound 0.001 µM) 94.3% | viability, T/C [9] 84.9% | viability, T/C [10] 94% | viability, T/C [11] 77.9% | viability, T/C [12] 61.6% | viability, T/C (second compound 1 µM, first compound 0.000316 µM) 97.5% | viability, T/C (second compound 1 µM, first compound 0.001 µM) 92.8% | viability, T/C [13] 99% | viability, T/C [14] 92.2% | viability, T/C [15] 83.2% | viability, T/C [16] 48.3% | viability, T/C (second compound 3.16 µM, first compound 0.000316 µM) 92.5% | viability, T/C (second compound 3.16 µM, first compound 0.001 µM) 106% | viability, T/C [17] 83% | viability, T/C [18] 96.4% | viability, T/C [19] 80% | viability, T/C [20] 58% | viability, T/C (second compound 10 µM, first compound 0.000316 µM) 103% | viability, T/C (second compound 10 µM, first compound 0.001 µM) 89.4% | viability, T/C [21] 98.8% | viability, T/C [22] 95.4% | viability, T/C [23] 69.7% | viability, T/C [24] 60.9%
> 100 nM: IC50 (second compound 0.0316 µM) | IC50 (second compound 0.1 µM) | IC50 (second compound 0.316 µM) | IC50 (second compound 3.16 µM) | IC50 (second compound 10 µM)
95 nM: IC50 (second compound 1 µM)

Reference: PubChem BioAssay AID1963835 (Molecular Pharmacology Branch, DTP, NCI, 2024)
